{"source": "patent US8557800B2", "about": "“Sphingosine kinase inhibitors” (Apogee Biotechnology Corporation, priority 2005, dated 2013)", "key": {"T24 (bladder)": {"system": "T24 (bladder)", "experiment": "Human tumor cell line panel, sulforhodamine B", "assay_type": "cell-based", "conditions": "48 hours, mean ± sd"}, "DU145 (prostate)": {"system": "DU145 (prostate)", "experiment": "Human tumor cell line panel, sulforhodamine B", "assay_type": "cell-based", "conditions": "DU-145, 48 hours, mean ± sd"}, "Caco-2 (colon)": {"system": "Caco-2 (colon)", "experiment": "Human tumor cell line panel, sulforhodamine B", "assay_type": "cell-based", "conditions": "48 hours, mean ± sd"}, "[1]": {"system": "MCF-7 human breast adenocarcinoma cells", "experiment": "Cytotoxicity, SRB binding assay", "assay_type": "cell-based", "conditions": "MCF7, inhibition of cell proliferation, 48 h, read-out: MCF-7 IC50", "summary_of_the_method": "(§1)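 Cells exposed to varying compound doses for 48 h, then survival measured by sulforhodamine B staining. IC50 is the concentration giving 50% proliferation inhibition, in μM, as mean±sd of replicate trials.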"}, "[2]": {"system": "MCF-10A non-transformed human breast epithelial cells", "experiment": "Cytotoxicity, SRB binding assay", "assay_type": "cell-based", "conditions": "inhibition of cell proliferation, 48 h, read-out: MCF-10A IC50", "summary_of_the_method": "as §1"}, "[3]": {"system": "mouse JC mammary adenocarcimona cell line growing subcutaneously in Balb/c mice", "experimental": "The antitumor activity of the representative SK inhibitors were evaluated using a syngeneic tumor model that uses the mouse JC mammary adenocarcimona cell line growing subcutaneously in immunocompetent Balb/c mice (Lee et al., 2003, Oncol Res 14: 49).\nIn FIG. 1, Balb/c mice, 6-8 weeks old, were injected subcutaneously with 10^6 JC cells suspended in phosphate-buffered saline. The SK inhibitors Compounds 62 and 57 were dissolved in PEG400 and administered to mice every-other day at a dose of 100 mg/kg. Body weights and tumor volumes were monitored daily. In FIG. 1, tumor growth is expressed as the tumor volume relative to day 1 for each animal."}, "Abl": {"biological_target": "Abl (Homo sapiens, UniProt P00519)", "experiment": "Kinase selectivity panel", "assay_type": "biochemical", "conditions": "read-out: percent of control activity, Abl", "experimental": "(§2) A common problem with attempts to develop protein kinase inhibitors is the lack of selectivity toward the target kinase since the majority of these compounds interact with nucleotide-binding domains that are highly conserved among kinases. […] The compound was tested at a single concentration of 50 μM."}, "P38 MAP kinase 1": {"biological_target": "P38 MAP kinase 1 (Homo sapiens, UniProt Q16539)", "sequence (Q16539 whole entry)": "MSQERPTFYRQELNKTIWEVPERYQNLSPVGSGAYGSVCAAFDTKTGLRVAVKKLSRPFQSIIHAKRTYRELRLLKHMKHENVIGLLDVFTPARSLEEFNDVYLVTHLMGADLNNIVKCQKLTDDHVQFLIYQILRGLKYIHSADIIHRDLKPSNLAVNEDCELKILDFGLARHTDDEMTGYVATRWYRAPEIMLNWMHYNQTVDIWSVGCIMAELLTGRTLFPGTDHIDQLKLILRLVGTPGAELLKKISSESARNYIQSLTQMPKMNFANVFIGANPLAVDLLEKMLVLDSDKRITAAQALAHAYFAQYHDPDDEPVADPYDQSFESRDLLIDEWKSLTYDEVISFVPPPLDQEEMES", "experiment": "Kinase selectivity panel", "assay_type": "biochemical", "conditions": "read-out: percent of control activity, P38 MAP kinase 1", "experimental": "as §2"}, "Protein kinase C ε": {"biological_target": "Protein kinase C ε (Homo sapiens, UniProt Q02156)", "sequence (Q02156 whole entry)": "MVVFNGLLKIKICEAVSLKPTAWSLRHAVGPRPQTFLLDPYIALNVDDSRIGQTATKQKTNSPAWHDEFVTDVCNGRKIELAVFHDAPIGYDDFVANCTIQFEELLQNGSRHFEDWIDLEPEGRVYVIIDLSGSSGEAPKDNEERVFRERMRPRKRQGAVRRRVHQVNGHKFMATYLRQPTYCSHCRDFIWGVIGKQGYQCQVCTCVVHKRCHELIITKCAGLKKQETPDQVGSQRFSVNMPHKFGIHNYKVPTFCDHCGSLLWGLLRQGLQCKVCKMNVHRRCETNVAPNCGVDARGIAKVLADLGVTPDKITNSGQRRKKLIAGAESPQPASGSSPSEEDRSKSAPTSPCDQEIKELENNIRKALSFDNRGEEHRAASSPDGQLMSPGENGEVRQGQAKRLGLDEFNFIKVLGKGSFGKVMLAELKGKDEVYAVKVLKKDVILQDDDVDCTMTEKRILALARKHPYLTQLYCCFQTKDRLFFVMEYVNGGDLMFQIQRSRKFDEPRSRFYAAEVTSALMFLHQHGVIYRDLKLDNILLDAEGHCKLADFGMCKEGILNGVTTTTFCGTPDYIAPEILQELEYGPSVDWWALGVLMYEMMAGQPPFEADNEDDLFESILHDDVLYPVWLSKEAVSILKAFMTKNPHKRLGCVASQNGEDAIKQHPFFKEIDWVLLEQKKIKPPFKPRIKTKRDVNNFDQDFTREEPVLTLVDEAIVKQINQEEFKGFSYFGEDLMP", "experiment": "Kinase selectivity panel", "assay_type": "biochemical", "conditions": "read-out: percent of control activity, Protein kinase C ε", "experimental": "as §2"}, "Fyn": {"biological_target": "Fyn (Homo sapiens, UniProt P06241)", "sequence (P06241 whole entry, species assumed)": "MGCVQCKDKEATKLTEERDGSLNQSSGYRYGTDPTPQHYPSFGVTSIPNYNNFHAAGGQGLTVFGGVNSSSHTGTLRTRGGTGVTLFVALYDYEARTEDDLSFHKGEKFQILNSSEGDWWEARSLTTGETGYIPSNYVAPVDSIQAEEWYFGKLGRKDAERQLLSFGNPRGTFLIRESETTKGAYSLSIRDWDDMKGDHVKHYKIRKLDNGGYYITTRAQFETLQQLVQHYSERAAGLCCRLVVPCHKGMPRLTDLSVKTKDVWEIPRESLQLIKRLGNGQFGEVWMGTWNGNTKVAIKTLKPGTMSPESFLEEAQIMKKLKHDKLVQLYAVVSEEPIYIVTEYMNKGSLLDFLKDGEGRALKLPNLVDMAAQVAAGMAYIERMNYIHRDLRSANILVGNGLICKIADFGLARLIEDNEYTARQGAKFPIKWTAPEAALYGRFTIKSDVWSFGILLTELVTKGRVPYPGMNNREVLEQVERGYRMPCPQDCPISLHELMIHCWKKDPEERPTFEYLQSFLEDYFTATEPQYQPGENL", "experiment": "Kinase selectivity panel", "assay_type": "biochemical", "conditions": "read-out: percent of control activity, Fyn", "experimental": "as §2"}, "CHK1": {"biological_target": "CHK1 (Homo sapiens, UniProt O14757)", "experiment": "Kinase selectivity panel", "assay_type": "biochemical", "conditions": "read-out: percent of control activity, CHK1", "experimental": "as §2"}, "cSrc": {"biological_target": "cSrc (Homo sapiens, UniProt P12931)", "sequence (P12931 whole entry, species assumed)": "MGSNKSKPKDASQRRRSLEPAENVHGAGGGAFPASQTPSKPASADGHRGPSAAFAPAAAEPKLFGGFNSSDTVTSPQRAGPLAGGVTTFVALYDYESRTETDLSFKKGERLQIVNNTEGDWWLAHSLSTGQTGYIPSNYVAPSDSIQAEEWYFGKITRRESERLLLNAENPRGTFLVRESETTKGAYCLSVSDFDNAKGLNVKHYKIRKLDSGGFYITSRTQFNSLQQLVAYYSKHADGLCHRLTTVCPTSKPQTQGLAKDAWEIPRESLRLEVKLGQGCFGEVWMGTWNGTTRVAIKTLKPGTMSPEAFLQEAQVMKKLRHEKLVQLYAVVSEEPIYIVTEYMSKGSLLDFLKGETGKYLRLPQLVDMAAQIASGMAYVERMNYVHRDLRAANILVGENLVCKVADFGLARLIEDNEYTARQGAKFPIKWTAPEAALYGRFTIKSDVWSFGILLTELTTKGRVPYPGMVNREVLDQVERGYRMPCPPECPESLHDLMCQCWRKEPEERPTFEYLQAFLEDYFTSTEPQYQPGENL", "experiment": "Kinase selectivity panel", "assay_type": "biochemical", "conditions": "read-out: percent of control activity, cSrc", "experimental": "as §2"}, "PDK1": {"biological_target": "PDK1 (Homo sapiens, UniProt O15530)", "sequence (O15530 whole entry)": "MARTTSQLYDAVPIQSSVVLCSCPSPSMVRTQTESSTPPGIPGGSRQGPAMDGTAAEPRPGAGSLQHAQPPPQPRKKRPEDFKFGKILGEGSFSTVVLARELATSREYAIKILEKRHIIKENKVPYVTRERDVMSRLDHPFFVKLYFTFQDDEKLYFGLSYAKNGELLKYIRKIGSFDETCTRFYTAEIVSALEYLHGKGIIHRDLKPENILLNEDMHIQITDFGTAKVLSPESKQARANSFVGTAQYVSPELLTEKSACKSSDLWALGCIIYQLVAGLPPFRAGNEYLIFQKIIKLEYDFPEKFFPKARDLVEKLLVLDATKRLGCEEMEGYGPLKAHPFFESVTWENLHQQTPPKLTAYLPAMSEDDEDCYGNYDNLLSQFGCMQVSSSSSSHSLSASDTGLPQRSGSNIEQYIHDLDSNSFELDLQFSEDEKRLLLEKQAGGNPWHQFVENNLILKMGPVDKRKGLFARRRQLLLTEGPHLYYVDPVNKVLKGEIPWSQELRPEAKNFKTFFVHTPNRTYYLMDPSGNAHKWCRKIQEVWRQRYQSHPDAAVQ", "experiment": "Kinase selectivity panel", "assay_type": "biochemical", "conditions": "read-out: percent of control activity, PDK1", "experimental": "as §2"}, "Ca^2+/calmodulin PK IV": {"biological_target": "Ca^2+/calmodulin PK IV (Homo sapiens, UniProt Q16566)", "experiment": "Kinase selectivity panel", "assay_type": "biochemical", "conditions": "read-out: percent of control activity, Ca^2+/calmodulin PK IV", "experimental": "as §2"}, "Aurora-A": {"biological_target": "Aurora-A (Homo sapiens, UniProt O14965)", "sequence (O14965 whole entry)": "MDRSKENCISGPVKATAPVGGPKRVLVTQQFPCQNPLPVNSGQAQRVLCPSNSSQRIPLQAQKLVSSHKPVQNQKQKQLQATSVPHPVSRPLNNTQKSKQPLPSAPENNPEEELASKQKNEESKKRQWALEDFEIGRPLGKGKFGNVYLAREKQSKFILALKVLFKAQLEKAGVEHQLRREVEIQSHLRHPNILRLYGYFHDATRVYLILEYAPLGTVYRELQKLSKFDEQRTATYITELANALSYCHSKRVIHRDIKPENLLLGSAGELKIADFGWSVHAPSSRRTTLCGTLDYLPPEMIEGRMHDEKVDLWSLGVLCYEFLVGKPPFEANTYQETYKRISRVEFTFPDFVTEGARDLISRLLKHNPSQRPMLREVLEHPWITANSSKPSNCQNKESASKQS", "experiment": "Kinase selectivity panel", "assay_type": "biochemical", "conditions": "read-out: percent of control activity, Aurora-A", "experimental": "as §2"}, "PKBγ": {"biological_target": "PKBγ (Homo sapiens, UniProt Q9Y243)", "experiment": "Kinase selectivity panel", "assay_type": "biochemical", "conditions": "read-out: percent of control activity, PKBγ", "experimental": "as §2"}, "IKKα": {"biological_target": "IKKα (Homo sapiens, UniProt O15111)", "experiment": "Kinase selectivity panel", "assay_type": "biochemical", "conditions": "read-out: percent of control activity, IKKα", "experimental": "as §2"}, "P38 MAP kinase 2": {"biological_target": "P38 MAP kinase 2 (Homo sapiens, UniProt Q15759)", "sequence (Q15759 whole entry)": "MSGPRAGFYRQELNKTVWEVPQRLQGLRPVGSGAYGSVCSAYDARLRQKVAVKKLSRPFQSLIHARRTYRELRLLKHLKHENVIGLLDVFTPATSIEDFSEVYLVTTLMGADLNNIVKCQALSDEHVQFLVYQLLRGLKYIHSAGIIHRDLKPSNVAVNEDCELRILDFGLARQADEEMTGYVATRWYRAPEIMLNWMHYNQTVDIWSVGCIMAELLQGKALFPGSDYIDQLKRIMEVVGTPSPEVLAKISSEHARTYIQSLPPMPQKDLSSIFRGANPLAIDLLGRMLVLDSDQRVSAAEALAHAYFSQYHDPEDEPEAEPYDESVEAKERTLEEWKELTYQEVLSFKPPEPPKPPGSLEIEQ", "experiment": "Kinase selectivity panel", "assay_type": "biochemical", "conditions": "read-out: percent of control activity, P38 MAP kinase 2", "experimental": "as §2"}, "PKA": {"biological_target": "PKA (Homo sapiens, UniProt P17612)", "experiment": "Kinase selectivity panel", "assay_type": "biochemical", "conditions": "read-out: percent of control activity, PKA", "experimental": "as §2"}, "Protein kinase C α": {"biological_target": "Protein kinase C α (Homo sapiens, UniProt P17252)", "experiment": "Kinase selectivity panel", "assay_type": "biochemical", "conditions": "read-out: percent of control activity, Protein kinase C α", "experimental": "as §2"}, "cRaf": {"biological_target": "cRaf (Homo sapiens, UniProt P04049)", "experiment": "Kinase selectivity panel", "assay_type": "biochemical", "conditions": "read-out: percent of control activity, cRaf", "experimental": "as §2"}, "PKBα": {"biological_target": "PKBα (Homo sapiens, UniProt P31749)", "experiment": "Kinase selectivity panel", "assay_type": "biochemical", "conditions": "read-out: percent of control activity, PKBα", "experimental": "as §2"}, "CDK2/cyclinE": {"biological_target": "CDK2/cyclinE (Homo sapiens, UniProt P24941)", "experiment": "Kinase selectivity panel", "assay_type": "biochemical", "conditions": "read-out: percent of control activity, CDK2/cyclinE", "experimental": "as §2"}, "EFGR": {"biological_target": "EFGR (Homo sapiens, UniProt P00533)", "experiment": "Kinase selectivity panel", "assay_type": "biochemical", "conditions": "read-out: percent of control activity, EFGR", "experimental": "as §2"}, "MEK kinase 1": {"system": "MEK kinase 1", "experiment": "Kinase selectivity panel", "assay_type": "biochemical", "conditions": "50 μM", "experimental": "as §2"}, "CDK1/cyclinB": {"biological_target": "CDK1/cyclinB (Homo sapiens, UniProt P06493)", "sequence (P06493 whole entry, species assumed)": "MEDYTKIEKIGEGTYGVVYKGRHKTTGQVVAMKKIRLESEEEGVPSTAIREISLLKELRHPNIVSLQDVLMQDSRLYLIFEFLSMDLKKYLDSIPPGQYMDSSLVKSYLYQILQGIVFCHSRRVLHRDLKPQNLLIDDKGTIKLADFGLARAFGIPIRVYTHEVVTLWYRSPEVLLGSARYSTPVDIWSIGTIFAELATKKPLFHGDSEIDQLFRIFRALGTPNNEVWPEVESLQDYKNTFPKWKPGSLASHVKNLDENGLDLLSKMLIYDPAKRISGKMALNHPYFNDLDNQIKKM", "sequence (P14635 whole entry partner, species assumed)": "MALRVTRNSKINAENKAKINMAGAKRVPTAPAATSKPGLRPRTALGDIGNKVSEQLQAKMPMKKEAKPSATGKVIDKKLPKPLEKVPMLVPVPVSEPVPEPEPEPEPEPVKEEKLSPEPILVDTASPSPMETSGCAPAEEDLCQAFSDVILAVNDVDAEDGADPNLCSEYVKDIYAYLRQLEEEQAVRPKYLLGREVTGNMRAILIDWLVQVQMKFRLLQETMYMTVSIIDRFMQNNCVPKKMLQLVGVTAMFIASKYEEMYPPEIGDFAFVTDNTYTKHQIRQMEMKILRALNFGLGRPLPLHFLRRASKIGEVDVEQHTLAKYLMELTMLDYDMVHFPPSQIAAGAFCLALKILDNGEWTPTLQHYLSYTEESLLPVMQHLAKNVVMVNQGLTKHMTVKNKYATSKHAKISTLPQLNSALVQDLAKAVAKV", "experiment": "Kinase selectivity panel", "assay_type": "biochemical", "conditions": "read-out: percent of control activity, CDK1/cyclinB", "experimental": "as §2"}, "MCF-7 (breast, ER+)": {"system": "MCF-7 (breast, ER+)", "experiment": "Human tumor cell line panel, sulforhodamine B", "assay_type": "cell-based", "conditions": "MCF7, 48 hours, mean ± sd"}, "Panc-1 (pancreas)": {"system": "Panc-1 (pancreas)", "experiment": "Human tumor cell line panel, sulforhodamine B", "assay_type": "cell-based", "conditions": "48 hours, mean ± sd"}}}
{"compound": "O=C(NCc1ccncc1)C12CC3CC(C1)CC(c1ccc(Cl)cc1)(C3)C2", "note": "[Compound 62, 3-(4-Chloro-phenyl)-adamantane-1-carboxylic acid (pyridin-4-ylmethyl)-amide]", "values": [{"measurement": "IC50", "setting": "T24 (bladder)", "value": "39.4 ± 7.4", "unit": "µM"}, {"measurement": "IC50", "setting": "DU145 (prostate)", "value": "21.9 ± 1.5", "unit": "µM"}, {"measurement": "IC50", "setting": "Caco-2 (colon)", "value": "11.8 ± 5.6", "unit": "µM"}, {"measurement": "IC50", "setting": "[1]", "value": 17, "unit": "µM"}, {"measurement": "IC50", "setting": "[2]", "value": 21, "unit": "µM"}, {"measurement": "inhibition of tumor growth relative to controls", "setting": "[3]; 100 mg/kg oral every-other day in PEG400", "value": 69, "unit": "%"}, {"measurement": "In vivo activity", "setting": "[3]; JC tumor model, intraperitoneal (ip) or oral (po) administration", "value": "active - ip and po"}, {"measurement": "toxicity to the mice in dose-response study", "setting": "[3]; mouse, in vivo", "value": "No toxicity"}, {"measurement": "remaining activity at 50 µM", "setting": "Abl", "value": 98, "unit": "%"}, {"measurement": "remaining activity at 50 µM", "setting": "P38 MAP kinase 1", "value": "94 ± 2", "unit": "%"}, {"measurement": "remaining activity at 50 µM", "setting": "Protein kinase C ε", "value": "101 ± 1", "unit": "%"}, {"measurement": "remaining activity at 50 µM", "setting": "Fyn", "value": "84 ± 5", "unit": "%"}, {"measurement": "remaining activity at 50 µM", "setting": "CHK1", "value": "142 ± 13", "unit": "%"}, {"measurement": "remaining activity at 50 µM", "setting": "cSrc", "value": "115 ± 3", "unit": "%"}, {"measurement": "remaining activity at 50 µM", "setting": "PDK1", "value": "116 ± 3", "unit": "%"}, {"measurement": "remaining activity at 50 µM", "setting": "Ca^2+/calmodulin PK IV", "value": "81 ± 3", "unit": "%"}, {"measurement": "remaining activity at 50 µM", "setting": "Aurora-A", "value": "103 ± 1", "unit": "%"}, {"measurement": "remaining activity at 50 µM", "setting": "PKBγ", "value": "105 ± 8", "unit": "%"}, {"measurement": "remaining activity at 50 µM", "setting": "IKKα", "value": "150 ± 16", "unit": "%"}, {"measurement": "remaining activity at 50 µM", "setting": "P38 MAP kinase 2", "value": "109 ± 5", "unit": "%"}, {"measurement": "remaining activity at 50 µM", "setting": "PKA", "value": "104 ± 5", "unit": "%"}, {"measurement": "remaining activity at 50 µM", "setting": "Protein kinase C α", "value": "86 ± 5", "unit": "%"}, {"measurement": "remaining activity at 50 µM", "setting": "cRaf", "value": "96 ± 5", "unit": "%"}, {"measurement": "remaining activity at 50 µM", "setting": "PKBα", "value": "95 ± 2", "unit": "%"}, {"measurement": "remaining activity at 50 µM", "setting": "CDK2/cyclinE", "value": "106 ± 6", "unit": "%"}, {"measurement": "remaining activity at 50 µM", "setting": "EFGR", "value": "101 ± 3", "unit": "%"}, {"measurement": "percent of control activity, MEK kinase 1", "setting": "MEK kinase 1", "value": "104 ± 3", "unit": "%"}, {"measurement": "remaining activity at 50 µM", "setting": "CDK1/cyclinB", "value": "105 ± 1", "unit": "%"}, {"measurement": "IC50", "setting": "MCF-7 (breast, ER+)", "value": "18.4 ± 7.4", "unit": "µM"}, {"measurement": "IC50", "setting": "Panc-1 (pancreas)", "value": "32.8 ± 0.1", "unit": "µM"}]}
